In patent US7871794B2, “Enhanced cell-free synthesis of active proteins containing disulfide bonds” (The Board of Trustees of the Leland Stanford Junior …, priority 2007, dated 2011):

Experiments:
reduction of GSSG = assay: Assay for the reduction of oxidized glutathione in PANOx-SP cell-free reactions; format: biochemical, E. coli
Method: For determining the effect of pH and IAM concentration on GSSG stabilization, the pH of S30 extracts was adjusted by first adding a small volume of 10 M KOH or HCl to the bottom of an Eppendorf tube. A much larger volume of S30 extract was then rapidly mixed with the small volume of acid or base. The pH was measured with a standardized micro-pH probe (Model 9810BN, Orion, Beverly, Mass.). Several 15 μL PANOx-SP reactions supplemented with 5 mM GSSG and the pK7CAT plasmid were prepared at each pH and IAM concentration. Single reactions were terminated at 15, 38, 60, 90, 120, and 180 minutes for each condition, and the concentration of SH groups was measured as described below.
Assay for the Reduction of Oxidized Glutathione. The reduction of oxidized glutathione was measured by monitoring the increase in concentration of sulfhydryl groups over time. The entire 15 μL in vitro synthesis reaction was diluted with an equal volume of 10% trichloroacetic acid and centrifuged for 10 minutes at 12,000×g and 4° C. Ten microliters of the supernatant was added to wells of a 96-well microtiter plate. To each well, 90 μL of 1 M Tris-HCl (pH 7.8) with 0.44 mg/mL DTNB (5,5′-dithiobis-2-nitrobenzoic acid, TCI America) was added. After 3 minutes at room temperature, the absorbance at 412 nm was measured and the concentration of free thiols determined by comparison to a standard curve determined with GSH solutions of known concentration.

[1] = target: T1, thioredoxin reductase (TrxB) (Escherichia coli, UniProt P0A9P4); assay: Assay for thioredoxin reductase activity after IAM treatment at various pHs; format: biochemical, E. coli; details: 7 mM IAM, 30 minutes at room temperature
T1 construct: made in house; host or cells: cell-free (in vitro) synthesis reaction, E. coli extract
T1 sequence (P0A9P4 whole entry): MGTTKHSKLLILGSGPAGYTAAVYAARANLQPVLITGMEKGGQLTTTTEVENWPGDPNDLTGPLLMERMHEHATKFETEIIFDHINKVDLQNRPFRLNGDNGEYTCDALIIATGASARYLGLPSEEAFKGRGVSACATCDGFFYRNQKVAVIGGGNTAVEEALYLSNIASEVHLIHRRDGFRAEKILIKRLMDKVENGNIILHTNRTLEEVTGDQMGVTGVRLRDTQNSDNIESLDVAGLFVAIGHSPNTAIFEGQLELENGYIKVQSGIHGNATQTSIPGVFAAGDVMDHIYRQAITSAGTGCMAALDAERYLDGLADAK
Method: Assay for Thioredoxin Reductase Activity. Thioredoxin reductase was produced in in vitro synthesis reactions as described previously (Knapp and Swartz (2004) FEBS Lett 559:66-70). The pHs of aliquots of the unpurified reaction product were adjusted to the desired values with small volumes of concentrated KOH or HCl. These aliquots were then mixed with a small volume of IAM concentrate to obtain a final IAM concentration of 7 mM. These samples were incubated at room temperature for 30 minutes, and then the thioredoxin reductase activity of the samples was measured. The activity assay for thioredoxin reductase contained the following components: 50 mM NaH2PO4 pH 7.6, 1.5 mM EDTA, 10 mM glucose 6-phosphate, 200 μM DTNB, 300 μM NADPH, 3 μM E. coli thioredoxin (EMD Biosciences; Darmstadt, Germany), and 0.2 U glucose 6-phosphate dehydrogenase (Sigma). Approximately 500 ng of thioredoxin reductase was added to 1 mL of the assay mixture and the rate of increase in absorbance at 412 nm was measured for 90 seconds at 37° C. DTNB produces two molecules of nitrothiobenzoate when it is reduced. The extinction coefficient of nitrothiobenzoate (13,600 M^−1 cm^−1) was used to calculate the rate of reaction.

Which “effect on sulfhydryl groups at IAM concentrations greater than 50 μM” value (reduction of GSSG; KGK10 extract) does the source give for NC(=O)CI [IAM, iodoacetamide] here?
The value was “slow rate of oxidation of sulfhydryls”.

And the “IAM concentration sufficient to eliminate the reduction of GSSG” value (reduction of GSSG; KGK10 extract, IAM treatment near physiological pH)?
Its value is 50 µM.

What about the “IAM needed to stabilize the oxidized glutathione buffer, KGK10 extract versus KC6 extract” value (reduction of GSSG; in vitro synthesis reactions containing 5 mM GSSG) of the same compound?
The value was “Twenty-fold less”.

And the “pH at which IAM inactivation of TrxB begins to lose its effectiveness” value [1]?
Its value is roughly 5.8.
